According to US20230233500A1, “Gasdermin D (GSDMD) Succination for the Treatment of Inflammatory Disease” (University of Massachusetts, priority 2020, published 2023):
Counter-ions that a name gives are not always drawn.

Experiments:
human THP1 = test: LPS-Nig induced cell death and LDH release in THP1 cells; format: cell-based; settings: PMA-differentiated THP1, fumarate 25 μM; for LPS-Nig induced cell death: SYTOX Orange
Procedure: FIGS. 6A-G. Fumarate inhibits pyroptosis in Human cells. (A-B) Representative images (A) and kinetic data (B) of SYTOX Orange and Hoechst-stained PMA-differentiated THP1 cells treated with LPS for 2 hours, DMSO (vehicle) or fumarate (25 μM) for 1 hour and nigericin (10 μM) for 6 hours. (C) LDH release from (A). (D-E) Kinetic cell death data of SYTOX Orange and Hoechst stained (D) or LDH assay of conditioned medium from primary CD14+ positive monocytes treated with LPS for 2 hours DMSO (vehicle) or fumarate (25 μM) for 1 hour and nigericin (10 μM) for 6 hours. (F) LC/MS quantification of fumarate in WT BMDMs treated with LPS for 2 hours, FHIN1 for 1 hour and nigericin for 1 hour. (G) Representative images of WT primary BMDMs stained with SYTOX Orange and Hoechst following treatment with LPS for 2 hours, DMSO (vehicle) or fumarate (25 μM) or FHIN1 (25 μM) for 1 hour and nigericin for a timecourse of 6 hours. A, B, D, G are representative of 3 independent experiments. C, E, F are pooled data from 3 independent experiments. ***, P<0.001, ****, P<0.00001 (Students t-test). Error bars show mean±SD (B, D) or SEM (C, E). Human kidney cell line HEK293T was cultured in Dulbecco's modified Eagle's medium supplemented with 10% (v/v) fetal bovine serum, 100 U/ml penicillin and 100 µg/ml streptomycin. Human peripheral blood monocyte cell line, THP1 cells were cultured in RPMI-1640 medium supplemented with 10% (v/v) fetal bovine serum, 100 U/ml penicillin and 100 µg/ml streptomycin. For isolation of BMDMs, tibias and femurs were removed from wild type and GsdmD^−/− mice and bone marrow was flushed with complete DMEM-medium. Cells were plated in medium containing 20% (v/v) conditioned medium of L929 mouse fibroblasts cultured for 7 days at 37° C. in a humidified atmosphere of 5% C02. Medium was replaced every 3 days. Cells were plated, treated and incubated in phenol red free medium. Following treatment medium was collected and assessed for LDH release using the CytoTox96 non-radioactive cytotoxicity assay (Promega) as per manufacturer's instructions. […]

[1] = test system: Bone marrow-derived macrophages (BMDMs); test: LPS-nigericin inflammasome activation/pyroptosis in BMDMs; format: cell-based, mouse; settings: for kinetic cell death: SYTOX orange, 0-6 hrs
Procedure: Human kidney cell line HEK293T was cultured in Dulbecco's modified Eagle's medium supplemented with 10% (v/v) fetal bovine serum, 100 U/ml penicillin and 100 µg/ml streptomycin. Human peripheral blood monocyte cell line, THP1 cells were cultured in RPMI-1640 medium supplemented with 10% (v/v) fetal bovine serum, 100 U/ml penicillin and 100 µg/ml streptomycin. For isolation of BMDMs, tibias and femurs were removed from wild type and GsdmD^−/− mice and bone marrow was flushed with complete DMEM-medium. Cells were plated in medium containing 20% (v/v) conditioned medium of L929 mouse fibroblasts cultured for 7 days at 37° C. in a humidified atmosphere of 5% C02. Medium was replaced every 3 days.
Conditioned media or serum was collected as indicated and IL-1β or TNF-α, were quantified by sandwich ELISA (R&D Systems).
Cells were plated, treated and incubated in phenol red free medium. Following treatment medium was collected and assessed for LDH release using the CytoTox96 non-radioactive cytotoxicity assay (Promega) as per manufacturer's instructions. Kinetic cell death assays were performed using SytoxOrange and the Biotek Cytation5.
For noncanonical inflammasome activation, cells were primed with […] Pam3CSK4 (Invivogen) for 2 h, followed by transfection of LPS (2 μg/ml) using Lipofectamine 2000 for 16 hours.
Primary BMDMs from WT or GsdmD^−/− mice were cultured in 12-well plates (1×10^6 cells per ml; 1 ml) or 10 cm dishes (2×10^6 cells per ml; 10 ml). HEK293T cells (2.5×10^5 cells per ml; 3 ml) were cultured in 6-well plates and transfected with FLAG-tagged GSDMD constructs where indicated. For cell lysate analysis cells were lysed directly in 1× Lamelli sample buffer. For native gel analysis cells were lysed in NP-40 lysis buffer (50 mM Tris-HCl, pH 7.4, containing 150 mM NaCl, 0.5% (w/v) IgePal, 50 mM NaF, 1 mM Na3VO4, 1 mM dithiothreitol, 1 mM phenylmethylsulfonyl fluoride and protease inhibitor cocktail. For immunoprecipitation of GSDMD, cells were treated as indicated and then collected in 500 μl RIPA buffer, followed by incubation for 15 min on ice. Lysates were incubated with GSDMD antibody and protein A-protein G-agarose was added to each sample, followed by incubation overnight at 4° C. Immunoprecipitates were collected by centrifugation and washed four times with 1 ml of RIPA buffer. Immunprecipates were eluted from beads using 1× sample buffer. Samples were resolved by SDS-PAGE and stained using simply blue safe stain or transferred to nitrocellulose membranes and analyzed by immunoblot. Immunoreactivity was visualized by the Odyssey Imaging System (LICOR Biosciences). For immunoblotting of IL-1β in cell supernatants, conditioned medium was collected and filtered using filter spin columns to reduce salt and remove abundant serum proteins. Filtrates were added to 4×SDS-PAGE sample buffer and resolved by SDS-PAGE for immunoblot analysis. GSDMD (ab209845) and GSDME antibodies were from abcam (ab215191). Caspase 1 antibody was from adipogen. Fumarase antibody was from cell signalling and anti-β-actin (AC-15; A1978) were from Sigma; anti-mouse IRDye™ 680 (926-68070) and anti-rabbit IRDye™ 800 (926-32211) were from LI-COR Biosciences.
Numerous studies have shown that cell metabolism impacts inflammatory responses. LPS activated macrophages switch from oxidative phosphorylation to aerobic glycolysis. Krebs cycle intermediates such as succinate and itaconate accumulate and moonlight as positive and negative regulators of inflammatory gene expression (3-8). To determine if Krebs cycle intermediates modulate pyroptosis, we tested their effect on inflammasome responses. Bone marrow-derived macrophages (BMDMs) were primed with LPS (2 hr) before being exposed to metabolites and then exposed to nigericin (Nig) and inflammasome activation/pyroptosis measured. The metabolites were added after LPS to avoid any impact on transcription. […] Fumarate impaired kinetic cell death (0-6 hrs) (FIG. 1E, FIG. 5A). […]

`COC(=O)/C=C/C(=O)OC` [Fumarate, Dimethyl fumarate] was tested. Which “LPS-Nig induced LDH release” value (human THP1) did it give?
The value was “blocked”.

What about the “LPS-Nig induced cell death” value (human THP1) of the same compound?
The value was “blocked”.

And the “LPS-Nig induced cell death” value (human THP1; listed as fumarate)?
The value was “inhibited cell death”.

What about the GSDMD oligomerization ([1]; BMDMs pre-treated, LPS-Nig, native and reduced lysates) of the same compound?
The GSDMD oligomerization was “decreased”.

What about the “LPS-Nig-induced release of LDH” value ([1]; WT BMDMs, LPS 2 hr, compound 1 hour (fumarate 25 μM), then nigericin) of the same compound?
Its value is “potently blocked”.

What about the “LPS-Nig-induced release of IL-1β” value ([1]; WT BMDMs, LPS 2 hr, compound 1 hour (fumarate 25 μM), then nigericin, ELISA) of the same compound?
The value was “potently blocked”.

What about the kinetic cell death ([1]; WT BMDMs, LPS-Nig) of the same compound?
Its kinetic cell death is “impaired”.

And the kinetic cell death ([1]; WT BMDMs, LPS-Nig, listed as fumarate)?
Its kinetic cell death is “inhibited cell death”.

What about the “formation of GSDMD-N” value ([1]; WT BMDMs, LPS-Nig, immunoblot) of the same compound?
Its value is “blocked”.

And the “cell death when added after Nig treatment” value ([1]; WT BMDMs, fumarate 25 μM 15 minutes after each nigericin timepoint)?
The value was “impaired”.
